Assay results published in patent publication US6916660B2, “Fluorescent sensor compounds for detecting saccharides” (North Carolina State University, priority 2002, dated 2005).
Like-named read-outs stand apart in the source and are kept apart here. Values belong to the compound of their own block, whether it stands above or below them.

Key:
HEPG2 cells = assay: Fluorescent labeling of fixed HEPG2 cells expressing sLex (microscopy, densitometry); type: cell-based; conditions: 1 μM compound
Description: (§1) Cell culture. HEPG2 and COS7 cells were maintained in RPMI media (G. E. Moore et al. (1967) J. Am. Med. Assoc. 199, 519-524) with 10% FBS (GIBCO). HEP3B cells were maintained in RPMI with 10% FBS and 1× sodium pyruvate and 1× non-essential amino acids (GIBCO).
(§2) Fluorescent labeling studies. 6-well plates were seeded with 1×10^6 cells per well and incubated at 37° C. and 5% CO2 for 48 h. The media was removed and cells were washed twice with 1×PBS. The cells were fixed with 1.5 mL of 1:1 methanol/PBS and incubated 20 minutes at 4° C. After incubation, the methanol/PBS solution was removed and cells were washed twice with PBS.
(§3) Diboronic acid compounds 7 were resuspended in 1:1 methanol/PBS and added to wells at 0.5 to 10 μM concentrations. One well was incubated only in methanol/PBS without compound as a negative control. The plates were then incubated in darkness at 4° C. for 45 min. Plates were examined with phase contrast microscopy followed by fluorescent microscopy (blue cube wavelengths 370 nm excitation, 426 nm emission; 20× lens). Plates were photographed using a Nikon DXM1200 digital camera and images captured with the Nikon ACT-1 program (v 2.10). The phase contrast and fluorescent images were then overlaid, organized and labeled using Adobe Photoshop 6.0. The images were quantified with NIH ImageJ 1.28. The units (mean gray value) were subtracted from background, where there are no cells. The fluorescent signal was stable for at least 96 h when cells were maintained in darkness.
(§4) HEPG2, a cell line that selectively expresses sLex on the surface, was selected for examination. To examine the selectivity of the sensor for cell surface sLex, HEP3B and COS7 cells were labeled in parallel. COS7 expresses none of the fucosylated antigens associated with carcinoma progression and HEP3B expresses only the Lewis Y antigen. See B. W. Weston et al. (1992) J. Biol. Chem. 267, 4152-4160; B. W. Weston et al. (1992) J. Biol. Chem. 267, 24575-24584.
(§5) HEPG2 and control cell lines were incubated with compound 7q, while three other diboronic acids (7b, 7d, 7y) were used as controls. […]

[1] = Solution binding studies with Lewis Y (data not shown)
HEP3B cells = assay: Fluorescent labeling of fixed HEP3B cells expressing Lewis Y (microscopy, densitometry); type: cell-based; conditions: 1 μM compound
Description: as §1, §2, §3, §4, §5

[2] = Binding of fluorescent compounds 7 to sLex in solution (fluorescence intensity change); conditions: solution binding studies
Description: Diboronic acid compounds 7 were designed to show significant fluorescence intensity changes upon binding with a complementary carbohydrate. In screening for their binding with the target carbohydrate, sLex, the fluorescence intensity changes of solutions of the compounds upon addition of the carbohydrate were determined. These experiments were conducted in a mixture of methanol and 0.1 M phosphate buffer (pH 7.4) (1:1, v/v). Methanol was used to improve the solubility of the sensor compounds. The concentration of fluorescent sensor compound (7) (specific structures provided in FIG. 1, above) was fixed at 1×10^−5 or 1×10^−6 M, and the concentration of sLex was set at 60 μM.

[3] = Fluorescence titration of sensor compounds with galactose; type: binding; conditions: 50% MeOH/0.1 M phosphate buffer pH 7.4, sensor 1×10^−6 M, 25° C.
Description: (§6) The affinity and selectivity of the fluorescent sensor compounds (7) for glucose were evaluated. Specifically, 2 mL of a solution of each sensor compound (7) in methanol (2×10^−6 M) was mixed with 2 mL of aqueous saccharide phosphate buffer solution (pH 7.4) at various concentrations, and the fluorescence intensity recorded. […] This represents a 43- and 49-fold selectivity over fructose and galactose, respectively. In addition, fluorescence enhancement was very large (about 7-fold).

[4] = Fluorescence titration of sensor compounds with glucose; type: binding
Description: as §6

[5] = Fluorescence titration of sensor compounds with fructose; type: binding; conditions: 50% MeOH/0.1 M phosphate buffer pH 7.4, sensor 1×10^−6 M, 25° C.
Description: as §6

[6] = Springsteen et al.; cited from earlier work
[7] = Springsteen et al.; cited from earlier work; remark: listed apart in the source

affinity for Lewis Y in solution [1]: low affinity | affinity for sLex in solution [2]: low affinity
Structure (SMILES): CN(Cc1ccccc1B(O)O)Cc1c2ccccc2c(CN(C)C(=O)CCc2ccc(CCC(=O)N(C)Cc3c4ccccc4c(CN(C)Cc4ccccc4B(O)O)c4ccccc34)cc2)c2ccccc12 [Compound 7d]
labeling of HEPG2 cells (mean gray value) (HEPG2 cells): did not label HEPG2 or HEP3B | labeling of HEP3B cells (mean gray value) (HEP3B cells): did not label HEPG2 or HEP3B

Structure (SMILES): CN(Cc1ccccc1B(O)O)Cc1c2ccccc2c(CN(C)C(=O)Cc2ccccc2CC(=O)N(C)Cc2c3ccccc3c(CN(C)Cc3ccccc3B(O)O)c3ccccc23)c2ccccc12 [Compound 7b]
Ka for galactose [3]: 30 M⁻¹ | labeling of HEPG2 cells (mean gray value) (HEPG2 cells): did not recognize sLex on HEPG2 cells | labeling of HEP3B cells (mean gray value) (HEP3B cells): avidly bound Lewis Y-expressing HEP3B cells | Ka for glucose ([4]; 50% MeOH/0.1 M phosphate buffer pH 7.4, sensor 1×10^−6 M, 25° C.): 1472 M⁻¹ | glucose concentration region of most sensitive fluorescence intensity changes ([4]; FIG. 8): mM region | selectivity for glucose over fructose ([4]; ratio of Ka): 43 fold | selectivity for glucose over galactose ([4]; ratio of Ka): 49 fold | improvement in affinity for glucose compared with PBA ([4]; versus phenylboronic acid): about 300 fold | improvement in selectivity for glucose over fructose compared with PBA ([4]; versus phenylboronic acid): about 1400 fold | Ka for fructose [5]: 34 M⁻¹

Structure (SMILES): CN(Cc1ccccc1B(O)O)Cc1c2ccccc2c(CN(C)C(=O)CCCCC(=O)N(C)Cc2c3ccccc3c(CN(C)Cc3ccccc3B(O)O)c3ccccc23)c2ccccc12 [Compound 7y]
labeling of HEPG2 cells (mean gray value) (HEPG2 cells): recognized surface sLex and Lewis Y with equal avidity | labeling of HEP3B cells (mean gray value) (HEP3B cells): recognized surface sLex and Lewis Y with equal avidity

Structure (SMILES): OB(O)c1ccccc1 [PBA, phenylboronic acid]
Ka for glucose [6]: 5 M⁻¹ | Ka for fructose [7]: 162 M⁻¹
